From patent US12371436B2, “Substituted benzodiazoliums as ENaC inhibitors” (ENTERPRISE THERAPEUTICS LIMITED, priority 2016, dated 2025)
Counter-ions that a name gives are not always drawn.

target: T1, ENaC (Homo sapiens, UniProt P37088+P51168+P51170); experiment: Short circuit current assay to determine ENaC blocker potency in human bronchial epithelial cells; type: cell-based; conditions: 50% inhibition of total amiloride-sensitive ISC, apical addition, read-out: Averages.ENaC IC50 (nM) Avg
T1 construct: host or cells: primary human bronchial epithelial cells (HBECs) differentiated at air-liquid interface
T1 sequence (P37088 1-669): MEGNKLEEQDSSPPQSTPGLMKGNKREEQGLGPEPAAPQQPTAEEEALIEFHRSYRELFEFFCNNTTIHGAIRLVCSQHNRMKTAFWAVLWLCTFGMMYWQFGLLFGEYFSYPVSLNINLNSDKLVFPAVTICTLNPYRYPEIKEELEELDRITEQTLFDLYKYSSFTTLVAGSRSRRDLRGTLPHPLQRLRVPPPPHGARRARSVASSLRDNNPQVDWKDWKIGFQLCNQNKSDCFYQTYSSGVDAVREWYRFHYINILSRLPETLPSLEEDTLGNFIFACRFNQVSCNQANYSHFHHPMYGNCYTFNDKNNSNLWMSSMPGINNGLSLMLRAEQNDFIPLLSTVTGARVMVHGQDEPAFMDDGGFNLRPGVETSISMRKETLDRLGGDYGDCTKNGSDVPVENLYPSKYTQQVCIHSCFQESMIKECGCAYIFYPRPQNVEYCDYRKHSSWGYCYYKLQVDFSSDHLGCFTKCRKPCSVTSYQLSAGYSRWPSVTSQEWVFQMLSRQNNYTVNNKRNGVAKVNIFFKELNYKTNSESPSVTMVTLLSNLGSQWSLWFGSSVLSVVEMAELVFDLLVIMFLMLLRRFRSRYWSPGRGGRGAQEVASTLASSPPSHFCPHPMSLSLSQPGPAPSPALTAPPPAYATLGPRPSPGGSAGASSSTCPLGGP
T1 sequence (P51168 1-640): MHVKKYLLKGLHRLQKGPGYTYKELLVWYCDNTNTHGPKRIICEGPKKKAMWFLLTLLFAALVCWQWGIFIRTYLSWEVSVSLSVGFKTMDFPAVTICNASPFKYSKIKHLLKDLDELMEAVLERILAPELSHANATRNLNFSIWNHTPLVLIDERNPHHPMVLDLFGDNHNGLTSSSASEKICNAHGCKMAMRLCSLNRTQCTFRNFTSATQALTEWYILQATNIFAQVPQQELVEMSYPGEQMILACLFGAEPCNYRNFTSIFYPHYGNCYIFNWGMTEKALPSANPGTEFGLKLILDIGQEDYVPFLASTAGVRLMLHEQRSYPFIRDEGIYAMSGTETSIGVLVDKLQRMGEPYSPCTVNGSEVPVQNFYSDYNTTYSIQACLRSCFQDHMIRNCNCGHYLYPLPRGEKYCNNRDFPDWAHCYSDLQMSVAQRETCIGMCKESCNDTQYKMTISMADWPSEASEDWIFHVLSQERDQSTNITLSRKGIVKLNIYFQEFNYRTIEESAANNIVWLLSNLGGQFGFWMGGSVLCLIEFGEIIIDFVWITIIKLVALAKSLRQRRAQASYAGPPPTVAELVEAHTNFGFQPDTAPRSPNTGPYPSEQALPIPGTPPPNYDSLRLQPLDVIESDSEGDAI
T1 sequence (P51170 1-649): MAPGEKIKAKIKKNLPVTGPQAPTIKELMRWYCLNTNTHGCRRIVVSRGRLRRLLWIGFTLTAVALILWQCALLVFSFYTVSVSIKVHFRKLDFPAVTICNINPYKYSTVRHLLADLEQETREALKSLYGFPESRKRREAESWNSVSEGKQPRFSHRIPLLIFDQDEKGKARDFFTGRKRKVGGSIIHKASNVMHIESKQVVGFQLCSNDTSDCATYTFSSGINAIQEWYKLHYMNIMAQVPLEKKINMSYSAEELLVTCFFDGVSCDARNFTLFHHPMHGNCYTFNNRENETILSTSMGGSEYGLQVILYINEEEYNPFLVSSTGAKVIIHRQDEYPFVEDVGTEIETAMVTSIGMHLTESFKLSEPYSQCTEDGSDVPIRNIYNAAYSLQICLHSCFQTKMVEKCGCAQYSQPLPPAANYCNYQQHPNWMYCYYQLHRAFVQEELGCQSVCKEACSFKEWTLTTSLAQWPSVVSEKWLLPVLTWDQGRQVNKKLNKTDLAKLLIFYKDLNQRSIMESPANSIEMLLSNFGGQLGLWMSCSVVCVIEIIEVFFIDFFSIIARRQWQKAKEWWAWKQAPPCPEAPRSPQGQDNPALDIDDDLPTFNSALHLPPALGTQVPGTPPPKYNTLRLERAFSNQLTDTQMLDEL
Procedure: Example 68—Short circuit current assay to determine ENaC blocker potency in human bronchial epithelial cells
Human bronchial epithelial cells (HBECs) (Lonza, UK) were cultured using a modification of the method described by Coote et al, (2008). Cells were seeded into plastic T-75 flasks and grown in Bronchial Epithelial Cell Growth Medium (BEGM) (Lonza, UK) supplemented with bovine pituitary extract (52 ng/mL), hydrocortisone (0.5 μg/mL), human recombinant Epidermal Growth Factor (0.5 ng/mL), epinephrine (0.5 ng/mL), transferrin (10 ng/mL), insulin (5 ng/mL), retinoic acid (0.1 ng/mL), triiodothyronine (6.5 ng/mL), gentamycin (50 μg/mL) and amphotericin-B (50 ng/mL). Medium was changed every 48 hours until cells were 90% confluent. Cells were then passaged and seeded (8.25×10^5 cells/insert) onto polycarbonate Snapwell™ inserts (Costar, UK) in differentiation media containing 50% DMEM in BGEM with the same supplements as above but without triiodothyronine and a final retinoic acid concentration of 50 nM (all-trans retinoic acid; Sigma-Aldrich, UK). Cells were maintained submerged for the first 7 days in culture after which time they were exposed to an apical air interface for the remainder of the culture period. From the first day of establishment of an ALI, HBEC were fed with a DMEM:HAMS F-12 (1:1) media containing 2% Ultroser G (Pall BioSepra, France) with gentamycin (50 μg/mL) and amphotericin B (50 ng/mL). Cells were used for short-circuit current assay between days 14-21 after the establishment of the ALI. At all stages of culture, cells were maintained at 37° C. in 5% CO2 in an air incubator.
Short-Circuit Current (ISC) Measurements
Snapwell inserts were mounted in Costar Vertical Diffusion Chambers (Costar, UK) and were bathed with continuously gassed Ringer solution (5% CO2 in O2; pH 7.4) maintained at 37° C. containing (in mM): 120 NaCl, 25 NaHCO3, 3.3 KH2PO4, 0.8 K2HPO4, 1.2 CaCl2, 1.2 MgCl2 and 10 glucose. The solution osmolarity was always between 280-300 mOsm/kg H2O for all physiological salt solutions used. Cells were voltage clamped to 0 mV (model EVC4000, WPI). Transepithelial resistance (RT) was measured by applying a 2 mV pulse at 30 s intervals and calculating RT by Ohm's law. Data were recorded using a PowerLab workstation (ADlnstruments, UK).
ENaC blocker compounds were added to the apical chamber from a 1000-fold stock solution (prepared in DMSO) to achieve a cumulative concentration response in terms of the inhibition of the basal ISC. At the completion of the concentration response, a supra-maximal concentration of amiloride (10 μM) was added. The concentration of test compound that induced a 50% inhibition of the total amiloride-sensitive ISC (IC50) was calculated using GraphPad Prism v6.05. The results are presented in Table 2, from which it can be seen that the compounds of the present invention have ENaC inhibiting activity.

In order of falling IC50:
1. CCn1c(CNC(=O)c2nc3cc[nH]c3nc2N)[n+](CC(=O)O)c2ccc(OC)cc21 [Example 10, 2-[({3-amino-5H-pyrrolo[2,3-b]pyrazin-2-yl}formamido)methyl]-3-(carboxylatomethyl)-1-ethyl-6-methoxy-1H-1,3-benzodiazol-3-ium]  199 nM
2. C[n+]1c(CNC(=O)c2nc3cc[nH]c3nc2N)n(Cc2ccccc2)c2ccccc21 [Example 15, 2-[({3-amino-5H-pyrrolo[2,3-b]pyrazin-2-yl}formamido)methyl]-1-benzyl-3-methyl-1H-1,3-benzodiazol-3-ium]  198 nM
3. CCn1c(CNC(=O)c2nc3cc[nH]c3nc2N)[n+](CC(=O)OC)c2ccc(OC)cc21 [Example 9, 2-[({3-amino-5H-pyrrolo[2,3-b]pyrazin-2-yl}formamido)methyl]-1-ethyl-6-methoxy-3-(2-methoxy-2-oxoethyl)-1H-1,3-benzodiazol-3-ium bromide]  48 nM
4. CCn1c(CNC(=O)c2nc3cc[nH]c3nc2N)[n+](C)c2ccc(F)cc21 [Example 2, 2-[({3-amino-5H-pyrrolo[2,3-b]pyrazin-2-yl}formamido)methyl]-1-ethyl-6-fluoro-3-methyl-1H-1,3-benzodiazol-3-ium chloride]  43 nM
5. CCn1c(CNC(=O)c2nc3cc[nH]c3nc2N)[n+](C)c2ccccc21 [Example 1, 2-[({3-amino-5H-pyrrolo[2,3-b]pyrazin-2-yl}formamido)methyl]-1-ethyl-3-methyl-1H-1,3-benzodiazol-3-ium formate]  33 nM
6. CCn1c(CNC(=O)c2nc3cc[nH]c3nc2N)[n+](CC(N)=O)c2ccc(OC)cc21 [Example 11, 2-[({3-amino-5H-pyrrolo[2,3-b]pyrazin-2-yl}formamido)methyl]-3-(carbamoylmethyl)-1-ethyl-6-methoxy-1H-1,3-benzodiazol-3-ium bromide]  22 nM
7. CCn1c(CNC(=O)c2nc3cc[nH]c3nc2N)[n+](C)c2ccc(Cl)cc21 [Example 3, 2-[({3-amino-5H-pyrrolo[2,3-b]pyrazin-2-yl}formamido)methyl]-6-chloro-1-ethyl-3-methyl-1H-1,3-benzodiazol-3-ium formate]  19 nM
8. CCn1c(CNC(=O)c2nc3cc[nH]c3nc2N)[n+](CCOCCOCCO)c2ccc(OC)cc21 [Example 14, 2-[({3-amino-5H-pyrrolo[2,3-b]pyrazin-2-yl}formamido)methyl]-1-ethyl-3-{2-[2-(2-hydroxyethoxy)ethoxy]ethyl}-6-methoxy-1H-1,3-benzodiazol-3-ium]  11 nM
9. CCn1c(CNC(=O)c2nc3cc[nH]c3nc2N)[n+](Cc2ccccc2)c2ccc(Cl)cc21 [Example 16, 2-[({3-amino-5H-pyrrolo[2,3-b]pyrazin-2-yl}formamido)methyl]-3-benzyl-6-chloro-1-ethyl-1H-1,3-benzodiazol-3-ium]  10 nM
10. CCn1c(CNC(=O)c2nc3cc[nH]c3nc2N)[n+](C)c2ccc(C(F)(F)F)cc21 [Example 5, 2-[({3-amino-5H-pyrrolo[2,3-b]pyrazin-2-yl}formamido)methyl]-1-ethyl-3-methyl-6-(trifluoromethyl)-1H-1,3-benzodiazol-3-ium formate]  9 nM
11. CCn1c(CNC(=O)c2nc3cc[nH]c3nc2N)[n+](Cc2ccccc2)c2ccc(OC)cc21 [Example 8, 2-[({3-amino-5H-pyrrolo[2,3-b]pyrazin-2-yl}formamido)methyl]-3-benzyl-1-ethyl-6-methoxy-1H-1,3-benzodiazol-3-ium formate]  9 nM
12. CCn1c(CNC(=O)c2nc3cc[nH]c3nc2N)[n+](C)c2ccc(OC)cc21 [Example 4, 2-[({3-amino-5H-pyrrolo[2,3-b]pyrazin-2-yl}formamido)methyl]-1-ethyl-6-methoxy-3-methyl-1H-1,3-benzodiazol-3-ium formate]  8 nM
13. CCn1c(CNC(=O)c2nc3cc[nH]c3nc2N)[n+](C)c2ccc(OC(F)(F)F)cc21 [Example 6, 2-[({3-amino-5H-pyrrolo[2,3-b]pyrazin-2-yl}formamido)methyl]-1-ethyl-3-methyl-6-(trifluoromethoxy)-1H-1,3-benzodiazol-3-ium formate]  5 nM
14. CCn1c(CNC(=O)c2nc3cc[nH]c3nc2N)[n+](CCSC)c2ccc(OC)cc21 [Example 12, 2-[({3-amino-5H-pyrrolo[2,3-b]pyrazin-2-yl}formamido)methyl]-1-ethyl-6-methoxy-3-[2-(methylsulfanyl)ethyl]-1H-1,3-benzodiazol-3-ium iodide]  5 nM
15. CCn1c(CNC(=O)c2nc3cc[nH]c3nc2N)[n+](CCO)c2ccc(OC)cc21 [Example 13, 2-[({3-amino-5H-pyrrolo[2,3-b]pyrazin-2-yl}formamido)methyl]-1-ethyl-3-(2-hydroxyethyl)-6-methoxy-1H-1,3-benzodiazol-3-ium]  4 nM
16. CCn1c(CNC(=O)c2nc3cc[nH]c3nc2N)[n+](CC)c2ccc(OC)cc21 [Example 7, 2-[({3-amino-5H-pyrrolo[2,3-b]pyrazin-2-yl}formamido)methyl]-1,3-diethyl-6-methoxy-1H-1,3-benzodiazol-3-ium formate]  3 nM
